Values after ≈ are worked out from the molar mass of the structure shown.
What was measured:
Format in all cases: cell-based
E. coli (ATCC 25922) [1] = test: Cell membrane integrity, propidium iodide staining
Method: The steps for dead cell staining using propidium iodide are as follows:
At the beginning of the experiment, samples were taken from MRSA and E. coli in the logarithmic growth phase, centrifuged at 8000 rpm for 5 minutes and washed twice with 0.85% NaCl solution to remove the culture medium and other possible interfering substances. Afterwards, the bacteria were resuspended in 0.85% NaCl solution and the concentration was adjusted to approximately 1×10^8 CFU/mL.
[…] After incubation, in order to mark and distinguish dead cells, 15 μM propidium iodide solution was added to each sample and incubated in the dark for 15 minutes. PI is a fluorescent dye that binds to DNA and can only penetrate into dead cells with damaged cell membranes.
Finally, the samples were observed using a fluorescence microscope or a confocal laser scanning microscope. By setting the appropriate fluorescence channel (excitation wavelength 535 nm, emission wavelength 617 nm), the red fluorescence emitted by dead cells can be detected. In this way, the effect of compound i on the lethality of bacterial cells can be intuitively evaluated and recorded, providing an experimental basis for further drug research.

E. coli (ATCC 25922) [2] = test: Bacterial extracellular conductivity; settings: 1×MIC and 2×MIC, vs blank control
Description: Changes in conductivity can reflect the permeability and integrity of the cell membrane. When the cell membrane is damaged or the permeability increases, the flow of ions inside and outside the cell will increase, resulting in an increase in conductivity. In the fields of biology and cell biology, conductivity measurements are often used to assess changes in cell membrane integrity.
MRSA and E. coli cells in the logarithmic growth phase were first resuspended after high-speed centrifugation and repeated PBS buffer washing and adjusted to the appropriate optical density. Next, different concentrations of compound i (1×MIC and 2×MIC) were added to the cell suspension, and a blank control group was set. All samples were incubated at 37° C. and sampled at set time points (0, 1, 2, 4, 6, and 8 hours). […] This series of operations helps to reveal the specific mechanism of action of compound i on bacterial growth and cell structure.

E. coli (ATCC 25922) [3] = test: Time-kill curve; settings: 1×MIC to 8×MIC, 0-24 hours
Method: Based on the MIC test results, the best performing active compounds were selected for time-kill curve studies.
(2) Sampling: At 0, 2, 4, 6, 8, 12, and 24 hours, aspirate 100 μL of the mixture
(3) Serial dilution and coating: Use 10 mM PBS buffer to dilute 10 times continuously, and evenly coat the diluted liquid on the agar plate
(4) Incubation and counting: Incubate in a 37° C. incubator for 24 hours and count the colonies.
(5) Sterilization curve drawing: Draw the curve of colony count change over time at different compound concentrations, and record the results as shown in FIG. 1.

E. coli (ATCC 25922) [4] = test: Bacterial intracellular pH (cFDA-SE); settings: control 6.16±0.10
Method: The definition of pHin is based on the ratio of the pH-sensitive wavelength (490 nm) to the pH-insensitive wavelength (440 nm).
First, prepare fluorescently labeled bacterial cells. MRSA and E. coli bacteria were removed from the culture in the logarithmic growth phase, and after high-speed centrifugation and washing with HEPES buffer, the bacteria were labeled with carboxyfluorescein succinimidyl ester (cFDA-SE), and the fluorescent dye was bound to the cells by incubation.
Next, PBS buffer was used to wash and remove the unbound fluorescent dye, and then the cells were suspended in the buffer and stored in a low-temperature environment. The second step was to determine the intracellular pH. The fluorescently labeled cell suspension was added to a test tube containing different concentrations of compound i and transferred to a black opaque 96-well plate for incubation. The fluorescence value was measured at specific excitation and emission wavelengths using a full-wavelength scanning multifunctional reader to calculate the intracellular pH. The last step is the calibration of the intracellular pH. The standard curve was determined using buffer solutions with different pH values to ensure accurate determination of the pH value inside the bacterial cells. […]

[5] = tested on: C. pneumoniae CWL-029, VR-1310; test: Anti-mycoplasma MIC; settings: Chlamydia pneumoniae, read-out: Antimycoplasma activity (MIC) CP-CWL-029^h
Method: The antimycoplasma activity was quantified using the […]. Retapamulin was used as a positive control to test the minimum inhibitory concentration of 3H-imidazo[4,5-C]pyridine pleuromutilin onium salt derivatives.
(1) Preparation of KM2 medium: Weigh 38.9 g of KM2 medium, add it to 800 mL of distilled water, boil to dissolve, sterilize under high pressure at 115° C. for 20 min, and set aside.
(2) Preparation of bacterial stock solution: Take 0.5 mL of Mhp-J^a, Mhp-LH^b, Mhr-BTS-7^c, MG-R^d, MS-WVU1853^e, MP-M129^f, CP-AR-39^g, CP-CWL-029^h, CP-TW-183^i, MH-PG-21^j, MG-G37^k cultured to the logarithmic phase and transfer it to 4.5 mL of KM2 liquid culture medium. When the culture medium turns yellow, divide each bacterium into 0.5 mL per tube and store it at −70° C. as bacterial stock solution.
(3) Determination of bacterial titer (color change unit, CCU): Take out the bacterial stock solution stored at −70° C., melt and balance to room temperature, add 0.18 mL KM2 medium to each well of the middle 4 rows of the 96-well plate (i.e. 4 parallels), take 0.02 mL and add it to the first column, dilute 10 times to 10^−11, and set up a negative control containing only KM2 medium (12th column). After sealing, put it in a 37° C. incubator and observe the results every day. The highest dilution at which the color of the medium changes is the CCU/mL of the strain.
Take an appropriate amount of seed bacterial solution and dilute it to 10^4 CCU/mL in turn according to its titer. Add drugs of each dilution in a 96-well plate in turn, and then add an equal amount of diluted bacterial solution. Set 200 μL of diluted mycoplasma bacterial solution as a positive control, 200 μL of KM2 liquid culture medium as a negative control, and set a solvent control group (10 μL of drug solvent+190 μL of mycoplasma bacterial solution). Each experiment is set up in 3 parallels. After all culture plates are sealed, they are cultured at 37° C., observed daily, and the final MIC value is recorded.

C=C[C@]1(C)C[C@@H](OC(=O)CSc2nc3cc[n+](Cc4ccc(C)cc4)cc3[nH]2)[C@]2(C)[C@H](C)CC[C@]3(CCC(=O)[C@H]32)[C@@H](C)[C@@H]1O [Compound i, 5-(4-methylbenzyl)-2-((2-(((3aR,4R,5R,7S,8S,9R,9aS,12R)-8-hydroxy-4,7,9,12-tetramethyl-3-oxo-7-vinyldecahydro-4,9a-propancyclopenta[8]cyclo-5-yl)oxy)-2-oxoethyl)thio)-3H-imidazo[4,5-C]pyridine-5-ium]
cell membrane integrity, propidium iodide red fluorescence (E. coli (ATCC 25922) [1]; 1×MIC): obvious red fluorescence was observed | cell membrane integrity, propidium iodide red fluorescence (E. coli (ATCC 25922) [1]; 2×MIC): red fluorescence was significantly enhanced | extracellular conductivity (E. coli (ATCC 25922) [2]): increased | bactericidal efficiency (time-kill curve) compared with retapamulin (E. coli (ATCC 25922) [3]): higher bactericidal efficiency | intracellular pH after treatment (E. coli (ATCC 25922) [4]; 1×MIC): 4.79±0.10 | intracellular pH after treatment (E. coli (ATCC 25922) [4]; 2×MIC): 3.58±0.10

C=C[C@]1(C)C[C@@H](OC(=O)CS[C@@H]2C[C@H]3CC[C@@H](C2)N3C)[C@]2(C)[C@H](C)CC[C@]3(CCC(=O)[C@H]32)[C@@H](C)[C@@H]1O [Retapamulin, reference compound]
MIC [5]: 0.03 µg/mL (≈ 0.0579 µM)
